Reference: patent publication US12577226B2, “Compounds for treating Huntington's disease” (PTC THERAPEUTICS, INC., priority 2019, dated 2026)

The compounds below were run on Endogenous Huntingtin Protein (capture with MW1 (expanded polyglutamine) or MAB2166 antibody) (assay: Endogenous Huntingtin Protein Assay (ELISA-based Meso Scale Discovery electrochemiluminescence assay)). Conditions: MSD electrochemiluminescence platform.
Assay type: cell-based
Method in brief: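 MSD electrochemiluminescence sandwich immunoassay: plates coated with 1 μg/mL MW1 or MAB2166 capture antibody, samples incubated overnight at 4 °C. Detection with rabbit monoclonal #5656S then SULFO-TAG anti-rabbit (each 0.25 μg/mL, 1 h RT).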

IC50 [µM]	Compound
0.5 to 1	CC1CN(c2ccc(-c3ncc(NCc4cnc5ccccc5c4)cc3O)nn2)CCN1 (stereo not drawn) [Compound 112, 2-[6-(3-methylpiperazin-1-yl)pyridazin-3-yl]-5-{[(quinolin-3-yl)methyl]amino}pyridin-3-ol]
≤ 0.1	CN[C@@H]1CCN(c2ccc(-c3ncc(-c4cnc(C)o4)cc3O)nn2)C1 [Compound 77, 2-{6-[(3R)-3-(methylamino)pyrrolidin-1-yl]pyridazin-3-yl}-5-(2-methyl-1,3-oxazol-5-yl)pyridin-3-ol]
≤ 0.1	Cc1cn2cc(-c3cnc(-c4ccc(N5CCC6(CCN6)C5)nn4)c(O)c3)ccc2n1 (stereo not drawn) [Compound 107, 2-[6-(1,6-diazaspiro[3.4]octan-6-yl)pyridazin-3-yl]-5-(2-methylimidazo[1,2-a]pyridin-6-yl)pyridin-3-ol]
≤ 0.1	CC(C)[C@H]1CN(c2ccc(-c3ncc(-c4cc(F)c5nn(C)cc5c4)cc3O)nn2)CCN1 [Compound 122, 5-(7-fluoro-2-methyl-2H-indazol-5-yl)-2-{6-[(3S)-3-(propan-2-yl)piperazin-1-yl]pyridazin-3-yl}pyridin-3-ol]
≤ 0.1	COc1cc(-c2cnc(-c3cnc(N4CC[C@@H](NC(C)(C)C)C4)nn3)c(O)c2)cc2cn(C)nc12 [Compound 146, 2-{3-[(3R)-3-(tert-butylamino)pyrrolidin-1-yl]-1,2,4-triazin-6-yl}-5-(7-methoxy-2-methyl-2H-indazol-5-yl)pyridin-3-ol]
0.5 to 1	CC1CN(c2ccc(-c3ncc(NCc4ccccn4)cc3O)nn2)CCN1 (stereo not drawn) [Compound 109, 2-[6-(3-methylpiperazin-1-yl)pyridazin-3-yl]-5-{[(pyridin-2-yl)methyl]amino}pyridin-3-ol]
≤ 0.1	CC[C@H]1CN(c2ccc(-c3ncc(-c4cn[nH]c4)cc3O)nn2)CCN1 [Compound 132, 2-{6-[(3S)-3-ethylpiperazin-1-yl]pyridazin-3-yl}-5-(1H-pyrazol-4-yl)pyridin-3-ol]
≤ 0.1	CC1(C)CC(Oc2ccc(-c3ncc(-c4ncco4)cc3O)nn2)CC2(CC2)N1 (stereo not drawn) [Compound 28, 2-{6-[(5,5-dimethyl-4-azaspiro[2.5]octan-7-yl)oxy]pyridazin-3-yl}-5-(1,3-oxazol-2-yl)pyridin-3-ol]
0.1 to 0.5	Cc1cn2cc(-c3cnc(-c4cnc(N5CC[C@@H](NC(C)(C)C)C5)nn4)c(O)c3)cc(C#N)c2n1 [Compound 147, 6-(6-{3-[(3R)-3-(tert-butylamino)pyrrolidin-1-yl]-1,2,4-triazin-6-yl}-5-hydroxypyridin-3-yl)-2-methylimidazo[1,2-a]pyridine-8-carbonitrile]
≤ 0.1	Cn1cc2cc(-c3cnc(-c4ccc(N5CCNCC5)nn4)c(O)c3)cc(F)c2n1 [Compound 93, 5-(7-fluoro-2-methyl-2H-indazol-5-yl)-2-[6-(piperazin-1-yl)pyridazin-3-yl]pyridin-3-ol]
≤ 0.1	COc1cc(-c2cnc(-c3ccc(OC4CC(C)(C)NC(C)(C)C4)nn3)c(O)c2)ncn1 [Compound 74, 5-(6-methoxypyrimidin-4-yl)-2-{6-[(2,2,6,6-tetramethylpiperidin-4-yl)oxy]pyridazin-3-yl}pyridin-3-ol]
≤ 0.1	Cc1cn2nc(-c3cnc(-c4ccc(OC5CC(C)(C)NC(C)(C)C5)nn4)c(O)c3)cc(C)c2n1 [Compound 50, 5-(2,8-dimethylimidazo[1,2-b]pyridazin-6-yl)-2-{6-[(2,2,6,6-tetramethylpiperidin-4-yl)oxy]pyridazin-3-yl}pyridin-3-ol]
≤ 0.1	CC1(C)CC(Oc2ccc(-c3ncc(-c4cn[nH]c4F)cc3O)nn2)CC2(CC2)N1 (stereo not drawn) [Compound 26, 2-{6-[(5,5-dimethyl-4-azaspiro[2.5]octan-7-yl)oxy]pyridazin-3-yl}-5-(5-fluoro-1H-pyrazol-4-yl)pyridin-3-ol]
≤ 0.1	CC1(C)C[C@@H](Oc2ccc(-c3ncc(-c4cn[nH]c4F)cc3O)nn2)[C@@H](F)C(C)(C)N1 [Compound 40, 5-(5-fluoro-1H-pyrazol-4-yl)-2-(6-{[(3S,4R)-3-fluoro-2,2,6,6-tetramethylpiperidin-4-yl]oxy}pyridazin-3-yl)pyridin-3-ol]
0.1 to 0.5	Cn1cc2cc(-c3cnc(-c4ccc(N5CCN(C6CC6)CC5)nn4)c(O)c3)cc(F)c2n1 [Compound 100, 2-[6-(4-cyclopropylpiperazin-1-yl)pyridazin-3-yl]-5-(7-fluoro-2-methyl-2H-indazol-5-yl)pyridin-3-ol]
0.1 to 0.5	Cn1ccc(-c2cnc(-c3ccc(O[C@H]4CC(C)(C)NC(C)(C)[C@H]4F)nn3)c(O)c2)n1 (single isomer, unassigned) [Compound 7, 2-(6-{[(3R,4S)-3-fluoro-2,2,6,6-tetramethylpiperidin-4-yl]oxy}pyridazin-3-yl)-5-(1-methyl-1H-pyrazol-3-yl)pyridin-3-ol or 2-(6-{[(3S,4R)-3-fluoro-2,2,6,6-tetramethylpiperidin-4-yl]oxy}pyridazin-3-yl)-5-(1-methyl-1H-pyrazol-3-yl)pyridin-3-ol]

Further lines, the compound ahead of its results:

Compound	IC50 [µM]
2-(6-{[(3R,4S)-3-fluoro-2,2,6,6-tetramethylpiperidin-4-yl]oxy}pyridazin-3-yl)-5-(2-methyl[1,2,4]triazolo[1,5-a]pyridin-6-yl)pyridin-3-ol and 2-(6-{[(3S,4R)-3-fluoro-2,2,6,6-tetramethylpiperidin-4-yl]oxy}pyridazin-3-yl)-5-(2-methyl[1,2,4]triazolo[1,5-a]pyridin-6-yl)pyridin-3-ol [Compound 55]	≤ 0.1
Cc1cn2cc(-c3cnc(-c4ccc(N5C[C@@H](C)N[C@@H](C)C5)nn4)c(O)c3)ccc2n1 [Compound 92, 2-{6-[(3R,5S)-3,5-dimethylpiperazin-1-yl]pyridazin-3-yl}-5-(2-methylimidazo[1,2-a]pyridin-6-yl)pyridin-3-ol and 2-{6-[(3S,5R)-3,5-dimethylpiperazin-1-yl]pyridazin-3-yl}-5-(2-methylimidazo[1,2-a]pyridin-6-yl)pyridin-3-ol]	≤ 0.1
Cc1cn2cc(-c3cnc(-c4ccc(O[C@@H]5CC(C)(C)NC(C)(C)[C@@H]5F)nn4)c(O)c3)cc2c(C)n1.Cc1cn2cc(-c3cnc(-c4ccc(O[C@H]5CC(C)(C)NC(C)(C)[C@H]5F)nn4)c(O)c3)cc2c(C)n1 (mixture of isomers) [Compound 67, 5-(1,3-dimethylpyrrolo[1,2-a]pyrazin-7-yl)-2-(6-{[(3R,4S)-3-fluoro-2,2,6,6-tetramethylpiperidin-4-yl]oxy}pyridazin-3-yl)pyridin-3-ol and 5-(1,3-dimethylpyrrolo[1,2-a]pyrazin-7-yl)-2-(6-{[(3S,4R)-3-fluoro-2,2,6,6-tetramethylpiperidin-4-yl]oxy}pyridazin-3-yl)pyridin-3-ol]	≤ 0.1
COc1cc(-c2cnc(-c3ccc(N4C[C@@H](C)N[C@@H](C)C4)nn3)c(O)c2)cc2cn(C)nc12 [Compound 87, 2-{6-[(3R,5S)-3,5-dimethylpiperazin-1-yl]pyridazin-3-yl}-5-(7-methoxy-2-methyl-2H-indazol-5-yl)pyridin-3-ol and 2-{6-[(3S,5R)-3,5-dimethylpiperazin-1-yl]pyridazin-3-yl}-5-(7-methoxy-2-methyl-2H-indazol-5-yl)pyridin-3-ol]	≤ 0.1
2-(6-{[(3R,4S)-3-fluoro-2,2,6,6-tetramethylpiperidin-4-yl]oxy}pyridazin-3-yl)-5-(4-methyl-1H-imidazol-1-yl)pyridin-3-ol and 2-(6-{[(3S,4R)-3-fluoro-2,2,6,6-tetramethylpiperidin-4-yl]oxy}pyridazin-3-yl)-5-(4-methyl-1H-imidazol-1-yl)pyridin-3-ol [Compound 41]	0.1 to 0.5
5-(8-ethyl-2-methylimidazo[1,2-a]pyridin-6-yl)-2-(6-{[(3R,4S)-3-fluoro-2,2,6,6-tetramethylpiperidin-4-yl]oxy}pyridazin-3-yl)pyridin-3-ol and 5-(8-ethyl-2-methylimidazo[1,2-a]pyridin-6-yl)-2-(6-{[(3S,4R)-3-fluoro-2,2,6,6-tetramethylpiperidin-4-yl]oxy}pyridazin-3-yl)pyridin-3-ol [Compound 45]	≤ 0.1
CC1(C)CC(Oc2ccc(-c3ncc(-n4nccn4)cc3O)nn2)CC(C)(C)N1 [Compound 20, 2-{6-[(2,2,6,6-tetramethylpiperidin-4-yl)oxy]pyridazin-3-yl}-5-(2H-1,2,3-triazol-2-yl)pyridin-3-ol]	≤ 0.1
CC1(C)CC(Oc2ccc(-c3ncc(-n4cncn4)cc3O)nn2)CC(C)(C)N1 [Compound 61, 2-{6-[(2,2,6,6-tetramethylpiperidin-4-yl)oxy]pyridazin-3-yl}-5-(1H-1,2,4-triazol-1-yl)pyridin-3-ol]	≤ 0.1
CC1(C)CC(Nc2cnc(-c3ncc(-n4nccn4)cc3O)nn2)CC(C)(C)N1 [Compound 163, 2-{6-[(2,2,6,6-tetramethylpiperidin-4-yl)amino]-1,2,4-triazin-3-yl}-5-(2H-1,2,3-triazol-2-yl)pyridin-3-ol]	≤ 0.1
Cn1cnc(-c2cnc(-c3ccc(O[C@@H]4CC(C)(C)NC(C)(C)[C@@H]4F)nn3)c(O)c2)cc1=O.Cn1cnc(-c2cnc(-c3ccc(O[C@H]4CC(C)(C)NC(C)(C)[C@H]4F)nn3)c(O)c2)cc1=O (mixture of isomers) [Compound 42, 6-[6-(6-{[(3R,4S)-3-fluoro-2,2,6,6-tetramethylpiperidin-4-yl]oxy}pyridazin-3-yl)-5-hydroxypyridin-3-yl]-3-methylpyrimidin-4(3H)-one and 6-[6-(6-{[(3S,4R)-3-fluoro-2,2,6,6-tetramethylpiperidin-4-yl]oxy}pyridazin-3-yl)-5-hydroxypyridin-3-yl]-3-methylpyrimidin-4(3H)-one]	0.5 to 1
CN(c1ccc(-c2ncc(-c3ncco3)cc2O)nn1)C1CC(C)(C)NC(C)(C)C1 [Compound 14, 2-{6-[methyl(2,2,6,6-tetramethylpiperidin-4-yl)amino]pyridazin-3-yl}-5-(1,3-oxazol-2-yl)pyridin-3-ol]	≤ 0.1
